According to US20240376547A1, “ONCOLOGIC VARIATIONS ASSOCIATED WITH CANCER AND METHODS OF TREATMENT” (LINNAEUS THERAPEUTICS, INC., priority 2021, published 2024):
“Also recorded” adds a separate entry of the source.

What was measured:
[1] = test system: Crizotinib resistant EML4-ALK A549 NSCLC cells; test: CCK-8 proliferation assay of Crizotinib naive or resistant EML4-ALK A549 NSCLC cells; format: cell-based; details: 4 days treatment, normalized to 0 nM control
Protocol: (§1) Cells were treated with an array of % dilutions of LNS8801 for 4 days with 4 technical replicates for each condition (500 nM, 250 nM, 125 nM, 62.5 nM, 31.25 nM, 15.63 nM, 7.81 nM, 3.91 nM, 1.95 nM, 0.98 nM and 0 nM). After 4 days, relative viable cells were determined by incubating cells with CCK-8 proliferation dye for 1 hour, and measuring absorbance at 450 nm. Relative cell numbers were calculated by subtracting baseline absorbance of the media followed by normalization to the 0 nM treated control wells.
After 4 days, relative viable cells were determined by incubating cells with CCK-8 proliferation dye for 1 hour, and measuring absorbance at 450 nm. Relative cell numbers were calculated by subtracting baseline absorbance of the media followed by normalization to the 0 nM treated control wells.

[2] = test system: EML4-ALK A549 NSCLC cells; test: CCK-8 proliferation assay of parental and EML4-ALK A549 NSCLC cells; format: cell-based; details: EML4-ALK A549 cells compared with parental (control) A549 cells, 4 days treatment, 0.98-500 nM
Protocol: as §1, with “Parental cells and EML4-ALK A549 NSCLC cells (5,000 cells) were plated in a 96-well tissue culture plate. Cells” for “Cells”, “½” for “%”, “[…]” for “15.63”, “[…],” for “3.91 nM,”, “Incubating” for “incubating”, “hour” for “hour,”

CC(=O)c1ccc2c(c1)[C@@H]1C=CC[C@@H]1[C@H](c1cc3c(cc1Br)OCO3)N2 [LNS8801]
relative viability of Crizotinib-resistant cells [1]: able to effectively reduce viability; also recorded: has activity in the setting of ALK-inhibitor resistance
cell viability (relative viable cells) [2]: effectively reduced EML4-ALK A549 cell viability over control A549 cells; also recorded: ALK+ NSCLC cells are more sensitive to LNS8801 than isogenic controls
